Experimental data from US3962256A, “2-Aminomethyl benzimidazole derivatives” (Delalande S.A., priority 1973, dated 1976).

How the values were obtained:
[1] = system: isolated ileum of the guinea-pig; assay: Antihistaminic: opposing histamine contraction of isolated ileum; conditions: promethazine as standard
Procedure: The compounds of formula I, introduced in the conserving medium, are capable of opposing the contractural action of histamine on the isolated ileum of the guinea-pig. This activity is evaluated by taking promethazine as standard.

[2] = system: gastric ulcers, provoked in a rat by tying of the pylorus (Shay ulcers); assay: Antiulcerous: reduction of Shay ulcers (tying of the pylorus); type: in vivo; conditions: 50 mg/Kg/i.d.
Procedure: The compounds of formula (I) administered by intraduodenal means reduce the extent of gastric ulcers, provoked in a rat by tying of the pylorus (Shay ulcers).
By way of example, there is listed in the following Table IX, the results obtained by the administrations of 50 mg/Kg/i.d. of different compounds of formula (I).

[3] = Lethal doses / percentage mortality, oral; type: in vivo; conditions: 2 000 mg/Kg/p.o.; 2000 mg/kg
Excerpt: As a result of a comparison between the pharmacologically active doses mentioned above and the lethal doses listed in the following Table XII, the difference between said doses is sufficiently great to permit the utilisation of the compounds of formula (I) in therapeutics.

[4] = system: oedema caused by the sub-plantar injection of carraghenin; assay: Antiinflammatory: reduction of sub-plantar oedema caused by carraghenin, rat; type: in vivo; conditions: 100 mg/Kg/p.o.
Procedure: These properties are shown by a diminution of the local oedema caused by the sub-plantar injection of a phlogogenic agent, such as carraghenin, in the rat following the oral administration of compounds of formula (I).
The following Table VI lists, by way of example, the percentage reduction of the oedems caused by the sub-plantar injection of carraghenin, resulting from the administration of 100 mg/Kg/p.o. of different compounds of formula (I).

[5] = system: excursions into the escape enclosure; assay: Central nervous system stimulation: excursions in the escape test; type: in vivo; conditions: 100 mg/Kg/p.o., mouse
Procedure: The compounds of formula (I), administered by oral means to the mouse, provoke an augmentation of the number of excursions into the escape enclosure.
Thus, following the administration of 100 mg/Kg/p.o. of the compounds of Code Nos. 72 457 and 72 736, an augmentation of 30% in the number of excursions in the escape test, is observed.

[6] = system: bronchoconstriction provoked in the guinea-pig by acetylcholine; assay: Antibronchoconstrictive and anticholinergic: bronchoconstriction by intravenous acetylcholine, Konzett method; type: in vivo; conditions: 100 mg/kg/i.d.
Excerpt: Injected by intraveinous or intraduodenal means, the compounds of formula (I) are capable of opposing the bronchoconstriction provoked in the guinea-pig by the itraveinous injection of acetylcholine by the Konzett method.
By way of example, the following Table VII lists the results obtained by the administration of different compounds of formula (I)

[7] = system: rat suffering from high blood pressure; assay: Antihypertensive: return of systolic arterial pressure to normal in rats with high blood pressure; type: in vivo; conditions: 200 mg/Kg/p.o.
Excerpt: The compounds of formula (I), administered by oral means to a rat suffering from high blood pressure, are capable of lowering the systolic arteriel pressure.
By way of example, there is provided in the following Table IV the results obtained by administration of different compounds of formula (I).

volume of urine emitted = assay: Diuretic: augmentation of urinary elimination; type: in vivo; conditions: 25 mg/Kg/p.o., mouse, 6 hours
Procedure: The compounds of formula (I), administered by oral means to the mouse, simultaneously with a volume of 1 ml. of an isotonic solution of sodium chloride per 25 g of the corporeal weight of the mouse, are capable of provoking an augmentation of the volume of urine emitted by reference to control animals, the volume being measured for 6 hours following administration.
By way of example, the following Table XI lists the results obtained by the administration of 25 mg/Kg/p.o. of different compounds of formula (I).

O=C(CCn1c(CN2CCCC2)nc2ccccc21)c1ccc(Cl)cc1 [72 366]
antihistaminic activity relative to promethazine [1]: equivalent activity to that of promethazine | Percentage reduction of Shay ulcers [2]: 40% | Percentage mortality [3]: 0% | Percentage reduction of sub-plantar oedema [4]: 60%

Cc1ccc(C(=O)CCn2c(CN(C)C)nc3ccccc32)cc1 [72 457]
augmentation in the number of excursions in the escape test [5]: 30% | Percentage reduction of Shay ulcers [2]: 30% | Percentage mortality [3]: 0% | Percentage inhibition of bronchoconstriction [6]: 80% | Percentage of rats with high blood pressure whose systolic arteriel pressure is returned to normal [7]: 50% | Percentage augmentation of urinary elimination (volume of urine emitted): 45%
